Data published in patent publication US20040081964A1, “Gene and sequence variation associated with sensing carbohydrate compounds and other sweeteners” (priority 2002, published 2004).
Like-named read-outs stand apart in the source and are kept apart here.

Assays:
[1] = tested on: mice from inbred strains with two different haplotypes of the Sac gene; conditions: strain preferences known from Lush et al., cited from earlier work
[2] = tested on: 129.B6-Sac congenic mice
Description: (§1) Preferences for 10% ethanol for the same mouse strains were studied as described in Abstr. of the 23th RSA Meeting (June 2000, Denver, Colo.).

[3] = tested on: mouse strains with 'B6-like' or '129-like' haplotype of Gpr98
Description: as §1

[4] = strains with the 129-like haplotype of Sac, p=0.0015 vs B6-like
[5] = strains with the B6-like haplotype of Sac

Structure (SMILES) | sweetener preference [1, 4] [%] | sweetener preference [1, 5] [%] | consumption of 10% ethanol solution ([2]; congenic mice homozygous for the 194-kb donor fragment from the B6 strain) [mL/day] | consumption of 10% ethanol solution ([2]; congenic mice without the donor fragment, p<0.05, one-tailed t-test) [mL/day] | preference for 10% ethanol ([3]; strains with the '129-like' haplotype, n=10 strains, p<0.05, one-tailed t-test) [%] | preference for 10% ethanol ([3]; strains with the 'B6-like' haplotype, n=14 strains) [%]
O=C1NS(=O)(=O)c2ccccc21 [saccharin] | 57±2 | 82±4 | – | – | – | –
CCO [ethanol] | – | – | 1.50 ± 0.15 | 1.19 ± 0.11 | 12±2 | 20±4
OC[C@H]1O[C@@](CO)(O[C@H]2O[C@H](CO)[C@@H](O)[C@H](O)[C@H]2O)[C@@H](O)[C@@H]1O [sucrose] | 54±1 | 86±6 | – | – | – | –
